In patent US8518946B2, “Salts of (R)-7-[3-amino-4-(2,4,5-trifluorophenyl)butanoyl]-3-trifluoromethyl-5,6,7,8-tetrahydroimidazo[1,5-a] pyrazine-1-carboxylic acid, preparation method and medical use thereof” (Jiangsu Hengrui Medicine Co., Ltd., priority 2009, dated 2013):
Like-named read-outs stand apart in the source and are kept apart here.

Columns and labels:
DPP-IX = target: T1, DPP-IX (Homo sapiens, UniProt Q86TI2); assay: DPP-IX inhibition, Promega DPPIV-Glo Protease Assay; assay type: biochemical; details: read-out: IC50 DPP9
T1 construct: purchased Bioscience 80090
T1 sequence (Q86TI2 whole entry): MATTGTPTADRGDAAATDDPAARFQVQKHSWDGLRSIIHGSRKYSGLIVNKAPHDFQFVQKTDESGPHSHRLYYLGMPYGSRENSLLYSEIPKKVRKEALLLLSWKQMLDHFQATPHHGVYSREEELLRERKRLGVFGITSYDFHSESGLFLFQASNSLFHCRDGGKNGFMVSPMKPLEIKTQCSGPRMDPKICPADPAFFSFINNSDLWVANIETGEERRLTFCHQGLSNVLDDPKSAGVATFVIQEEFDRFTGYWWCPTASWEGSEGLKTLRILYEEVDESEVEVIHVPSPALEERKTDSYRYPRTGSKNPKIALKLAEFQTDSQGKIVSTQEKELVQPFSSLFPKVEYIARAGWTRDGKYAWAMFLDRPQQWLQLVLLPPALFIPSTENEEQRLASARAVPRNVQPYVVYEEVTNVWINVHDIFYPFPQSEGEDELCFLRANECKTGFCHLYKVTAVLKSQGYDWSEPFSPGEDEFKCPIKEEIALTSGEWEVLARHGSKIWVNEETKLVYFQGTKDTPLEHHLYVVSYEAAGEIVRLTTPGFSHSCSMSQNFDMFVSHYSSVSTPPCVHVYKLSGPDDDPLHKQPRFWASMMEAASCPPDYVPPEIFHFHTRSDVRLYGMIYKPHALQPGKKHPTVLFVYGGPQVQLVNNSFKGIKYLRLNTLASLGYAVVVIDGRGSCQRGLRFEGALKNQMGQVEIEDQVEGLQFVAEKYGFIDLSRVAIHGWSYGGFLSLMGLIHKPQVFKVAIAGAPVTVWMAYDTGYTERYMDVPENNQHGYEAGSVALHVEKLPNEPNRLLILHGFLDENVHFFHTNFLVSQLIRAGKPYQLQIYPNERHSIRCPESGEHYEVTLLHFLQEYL
Method: (§1) The compounds of the present invention were tested to determine their DPP-IV, DPP-VIII, DPP-IX inhibition activity according to the following methods. The half inhibition concentrations IC50 (the concentration of the test compound showing 50% inhibition to the enzyme activity) of each compound were determined by reaction test and calculation of the mixture of fixed amounts of enzyme and substrate with several different concentrations of the test compounds.
(§2) The compounds of the present invention were tested to determine the DPP-IV, DPP-VIII, DPP-IX inhibition activity in the following tests using Promega DPPIV-Glo™ Protease Assay (Cat No. G8350/G8351) Kit, wherein:
c. DPP-IX enzyme bought from Bioscience, Catalog no. 80090.
(§3) The preparation procedure of the conventional reagent such as DPPIV-Glo buffer, luciferin reagents needed in the test and the detail operation of the test can refer to the specifications of the kits. The assay was carried out as following steps:
(§4) The tested compounds were dissolved in DMSO to prepare a series of different concentrations of the test compound solution. DPPIV-Glo buffer and the freezing luciferin detection reagent were equilibrated to room temperature. The luciferin detection reagent was dissolved in moderate buffer in a brown flask to form a solution. Then DPP-IV-Glo. was dissolved in ultrapure water to give the appropriate concentration. The substrate solution and the luciferin detection reagent solution were mixed sufficiently in an appropriate ratio (the ratio of the invention is 1:49), and the mixture was layed at room temperature for 30-60 minutes. Tris buffer (2 mM, pH 8.0), the test compounds and DPP-IV (DPP-VIII or DPP-IX) were mixed and then transferred to a 96-well plate. Each test contains double-well of three-well control. The same volume of DMSO was added to the negative control and blank control. Then the 96-well plate was added with mixed solution of luciferin detection reagent and substrate to initiate the reaction. The 96-wells plate was incubated at room temperature on a plate shaker for 40 minutes after sealed. The strength of the fluorescent signal in each well was determined by microplate reader and the inhibition rate to the enzyme of the compound at this concentration was calculated by the formula as following: inhibitory rate: IR=[1−(S−B)/(N−B)]*100% • S: value of the sample • B: value of the blank control • N: value of the negative control
(§5) IC50 of the test compounds can be calculated by the inhibition rate at different concentration.

normal ICR mice = assay: Hypoglycemic effect, oral glucose tolerance in normal ICR mice; assay type: in vivo; details: 10 mg/kg by gavage, glucose 4 g/kg 15 minutes after administration
Method: To observe the effects on oral glucose tolerance of the compounds of Example 1-4 and Example 8-12 in normal ICR mice (SINO-BRITSH SIPPR/BK LAB.ANIMAL LTD., CO), the hypoglycemic effects in vivo have been evaluated using blood-glucose meter to measure and analyze the sugar content of the samples at different time points during 2 hours. The samples were taken from the mouse's tail.
The administration dose was 10 mg/kg, and the blank was administered with water. Both groups contained 5% DMSO.
The mice were administered by gavage. 4 g/kg of 10% glucose solution was administered (0.8 mL to each mice) 15 minutes after administration.
The mice were administered according to above dose (the blank group was administrated with 5% DMSO aqueous solution) and the blood sugar value was measured (−15 minutes).
15 minutes after administration, the mice were administered of 4 g/kg of 20% glucose solution and the values of blood sugar were tested by Roche ACCU-CHEK at 0, 15, 30, 45, 60, 120 minutes.

DPP-VIII = target: T2, DPP-VIII (Homo sapiens, UniProt Q6V1X1); assay: DPP-VIII inhibition, Promega DPPIV-Glo Protease Assay; assay type: biochemical; details: read-out: IC50 DPP8
T2 construct: purchased Bioscience 80080
T2 sequence (Q6V1X1 whole entry): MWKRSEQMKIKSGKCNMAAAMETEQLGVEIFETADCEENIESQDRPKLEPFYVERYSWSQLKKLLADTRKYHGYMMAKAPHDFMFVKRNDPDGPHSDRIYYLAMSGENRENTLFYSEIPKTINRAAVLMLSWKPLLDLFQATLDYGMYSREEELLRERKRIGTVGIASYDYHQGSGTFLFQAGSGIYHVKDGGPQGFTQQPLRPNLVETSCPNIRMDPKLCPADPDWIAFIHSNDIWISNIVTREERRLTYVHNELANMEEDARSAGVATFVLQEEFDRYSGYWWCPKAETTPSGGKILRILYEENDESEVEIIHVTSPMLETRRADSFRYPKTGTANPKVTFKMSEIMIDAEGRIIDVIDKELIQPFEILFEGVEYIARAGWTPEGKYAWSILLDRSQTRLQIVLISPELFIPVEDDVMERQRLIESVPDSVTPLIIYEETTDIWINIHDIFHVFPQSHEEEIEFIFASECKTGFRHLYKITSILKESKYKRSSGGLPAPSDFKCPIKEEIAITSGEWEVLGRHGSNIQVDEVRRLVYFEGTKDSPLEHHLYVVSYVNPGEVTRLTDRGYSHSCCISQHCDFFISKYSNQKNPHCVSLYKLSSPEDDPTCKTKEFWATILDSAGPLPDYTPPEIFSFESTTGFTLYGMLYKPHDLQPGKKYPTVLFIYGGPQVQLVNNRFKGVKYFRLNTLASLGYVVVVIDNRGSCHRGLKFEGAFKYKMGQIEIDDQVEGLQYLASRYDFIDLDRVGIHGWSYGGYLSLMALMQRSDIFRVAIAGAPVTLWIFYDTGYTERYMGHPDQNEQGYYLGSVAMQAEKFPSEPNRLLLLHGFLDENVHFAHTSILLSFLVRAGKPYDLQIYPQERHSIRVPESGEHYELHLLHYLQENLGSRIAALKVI
Method: as §1, §2
b. DPP-VIII enzyme bought from Bioscience, Catalog no. 80080;
as §3, §4, §5

DPP-IV [1] = target: T3, DPP-IV (Homo sapiens, UniProt P27487); assay: DPP-IV inhibition, Promega DPPIV-Glo Protease Assay; assay type: biochemical
T3 construct: purchased Calbiochem 317630
T3 sequence (P27487 whole entry): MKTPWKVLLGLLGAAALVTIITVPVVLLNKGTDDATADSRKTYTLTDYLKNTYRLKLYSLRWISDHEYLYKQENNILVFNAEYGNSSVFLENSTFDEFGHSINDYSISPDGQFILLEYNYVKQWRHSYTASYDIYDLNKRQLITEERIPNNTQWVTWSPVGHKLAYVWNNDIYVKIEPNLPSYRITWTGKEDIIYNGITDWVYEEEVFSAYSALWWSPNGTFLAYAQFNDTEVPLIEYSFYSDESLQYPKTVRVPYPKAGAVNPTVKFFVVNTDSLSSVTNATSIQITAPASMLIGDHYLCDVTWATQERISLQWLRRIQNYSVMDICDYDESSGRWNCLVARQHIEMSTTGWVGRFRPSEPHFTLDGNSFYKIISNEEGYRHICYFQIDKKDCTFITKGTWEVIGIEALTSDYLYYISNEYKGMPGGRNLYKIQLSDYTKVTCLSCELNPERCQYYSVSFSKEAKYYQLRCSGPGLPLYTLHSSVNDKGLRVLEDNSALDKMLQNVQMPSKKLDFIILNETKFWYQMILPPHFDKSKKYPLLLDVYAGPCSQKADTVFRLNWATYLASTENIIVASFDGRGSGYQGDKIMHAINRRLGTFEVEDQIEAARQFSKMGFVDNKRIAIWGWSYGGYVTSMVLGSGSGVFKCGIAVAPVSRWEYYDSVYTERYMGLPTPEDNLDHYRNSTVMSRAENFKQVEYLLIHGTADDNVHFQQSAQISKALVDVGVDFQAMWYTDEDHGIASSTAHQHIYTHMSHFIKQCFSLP
Method: as §1, §2
a. DPP-IV enzyme bought from Calbiochem, Catalog no. 317630;
as §3, §4, §5

[2] = Solubility experiment in four systems; assay type: physicochemical
Method: According to the conventional solubility measurement, the solubility of the test samples were determined in four different systems: phosphate buffer solution (PBS, pH=7.4), methanol, 0.1% hydrochloric acid and water.

[3] = Pharmacokinetics assay in rats (LC/MS/MS plasma concentration); assay type: in vivo, SD rats; details: for F: intragastric 3.0 mg/kg (as free base), absolute bioavailability from AUC0-t vs vein injection; for Vd/F: read-out: Vz/F
Excerpt: The compound of Example 3 was administrated intragastrically or tail vein injection to rats and the compounds of Example 1-4, Example 9 and Example 11-12 were administrated intragastrically to determine the drug concentration in plasma at different time points by LC/MS/MS measurement. The pharmacokinetics of the compounds of the present invention was studied and evaluated in rats. And the oral absolute bioavailability was investigated.
Compounds of Example 1-4, Example 9 and Example 11-12.
[…] healthy adult SD rats, male and female in half, were purchased from SINO-BRITSH SIPPR/BK LAB.ANIMAL LTD., CO, License number: SCXK (Shanghai) 2008-0016.
Vein injection group: the proper weighed test compound was dissolved in 0.5 mL of DMSO by ultrasound and then diluted with normal saline to 15 mL to form a 0.3 mg/mL solution.
Intragastrically administered group: the proper weighed test compound was dissolved in 0.5% CMC-Na by ultrasound to form a 0.3 mg/mL of suspension.
32 healthy adult SD rats, male and female in half, were divided into 8 groups so that each group consisted 4 rats. After an overnight fast, the rats were tail vein injected of the compound of Example 3 and intragastrically administered the compound of Example 3 and the salt thereof, at a dose of 3.0 mg/kg (calculated as the free base form) and a volume of 10 mL/kg.
Blood samples (0.2 mL) of the rats in vein injection group were taken from eye socket at pre administration and at 2, 15, 30 minutes and 1.0, 2.0, 4.0, 6.0, 8.0, 12.0, 24.0 hours post administration, which were stored in heparinized tubes and centrifuged for 10 minutes at 3,500 rpm. The plasma samples were stored at −20° C. until analysis. The rats were fed 2 hours after administration.
Blood samples of the rats in intragastrically administered group were taken at pre administration and at 0.5, 1.0, 2.0, 3.0, 4.0, 6.0, 8.0, 12.0, 24.0 hours post administration. The samples were treated with the same method as mentioned above.
50 μL of internal standard solution and 150 μL of methanol were added to 50 μL of rat plasma obtained at various time points after administration. Then the mixture was mixed for 3 minutes using a vortexer and centrifuged for 10 minutes at 13,500 rpm. 10 μL of the supernatant was analyzed by LC/MS/MS.
The compartmental model of pharmacokinetics was fitted for the test compounds and the major pharmacokinetic parameters were calculated by DAS 2.0 software in which Cmax and tmax were the actually measured values. The absolute bioavailability was calculated by AUC0-t taken from post administration and vein injection.

DPP-IV [4] = target: T3, DPP-IV; details: example 10 of PCT/CN2008/001936; cited from earlier work
[5] = intragastric 3.0 mg/kg, phosphate
[6] = 0.1% hydrochloric acid, simulated gastric fluid, 0.1% hydrochloric acid, read-out: Solubility Value, 0.1% HCl
[7] = methanol, organic solvent or mixture, methanol, read-out: Solubility Value, methanol
[8] = phosphate buffer solution (PBS), pH 7.4, aqueous buffer, PBS pH 7.4, read-out: Solubility Value, PBS (pH 7.4)
[9] = water, read-out: Solubility Value, water
[10] = both sexes, SD, rat, plasma, po, 3 mg/kg, intragastric 3.0 mg/kg
[11] = both sexes, SD, rat, plasma, po, 3 mg/kg, intragastric 3.0 mg/kg, read-out: AUC0-t
[12] = both sexes, SD, rat, plasma, po, 3 mg/kg, intragastric 3.0 mg/kg, read-out: CL/F (converted)
[13] = both sexes, SD, rat, plasma, po, 3 mg/kg, intragastric 3.0 mg/kg, read-out: Cmax
[14] = both sexes, SD, rat, plasma, po, 3 mg/kg, intragastric 3.0 mg/kg, read-out: MRT
[15] = both sexes, SD, rat, plasma, po, 3 mg/kg, intragastric 3.0 mg/kg, read-out: Tmax

Row | IC50 (DPP-IX) | IC50 (DPP-VIII) | IC50 (DPP-IV [1]) | solubility [2, 6] | solubility [2, 7] | solubility [2, 8] | solubility [2, 9] | half-life [3, 10] | AUC(0-t) [3, 11] | CL/F [3, 12] | Cmax [3, 13] | MRT [3, 14] | Tmax [3, 15] | Vd/F [3, 10] | F [3] | Structure (SMILES) | Hypoglycemic rate of blood sugar of 30 minutes after administration (normal ICR mice) | other results
1 | 185 µM | 400 µM | 0.015 µM |  |  |  |  |  |  |  |  |  |  |  |  | N[C@@H](CC(=O)N1CCn2c(C(F)(F)F)nc(C(=O)O)c2C1)Cc1cc(F)c(F)cc1F [Example 2, (R)-7-[3-Amino-4-(2,4,5-trifluorophenyl)butanoyl]-3-trifluoromethyl-5,6,7,8-tetrahydro-imidazo[1,5-a]pyrazine-1-carboxylic acid phosphate] |  | Hypoglycemic rate of blood sugar of 30 minutes after administration (normal ICR mice; phosphate, 10 mg/kg): 29.96%; Solubility Value, 0.1% HCl ([2]; 0.1% hydrochloric acid, phosphate): 32.5 mg/mL; Solubility Value, PBS (pH 7.4) ([2]; PBS pH 7.4, phosphate): 20.2 mg/mL; Solubility Value, methanol ([2]; methanol, phosphate): 37.5 mg/mL; Solubility Value, water ([2]; water, phosphate): 26.1 mg/mL; pharmacokinetics and bioavailability (conclusion in words) ([3]; compared with other compounds): improved obviously; F ([3]; phosphate): 8.63%; AUC(0-t) [3, 5]: 0.1981 ± 0.0574 µg·h/mL; CL/F [3, 5]: 16.2 ± 4.55 L/h/kg; Cmax [3, 5]: 0.0666 ± 0.0364 µg/mL; MRT [3, 5]: 4.05 ± 3.66 h; Tmax [3, 5]: 0.92 ± 0.58 h; t1/2 [3, 5]: 1.69 ± 1.24 h
2 | 135 µM | 244 µM | 0.012 µM | 33.8 mg/mL | 0.5 mg/mL | 12.3 mg/mL | 19.5 mg/mL | 2.54 ± 0.86 h | 0.0746 ± 0.0217 µg·h/mL | 40.3 L/h/kg | 0.017 ± 0.0069 µg/mL | 4.23 ± 0.84 h | 1.75 ± 0.5 h | 154 ± 77 L/kg | 3.25% | N[C@@H](CC(=O)N1CCn2c(C(F)(F)F)nc(C(=O)O)c2C1)Cc1cc(F)c(F)cc1F.O=C(O)C(O)C(O)C(=O)O [Example 12, (R)-7-[3-Amino-4-(2,4,5-trifluorophenyl)butanoyl]-3-trifluoromethyl-5,6,7,8-tetrahydro-imidazo[1,5-a]pyrazine-1-carboxylic acid (2S,3S)-2,3-dihydroxybutanedioic acid] | 24.11% | 
3 | 42.3 µM | 77.3 µM | 0.022 µM | 94.8 mg/mL | 46.7 mg/mL | 57.4 mg/mL | 43.5 mg/mL | 2.65 ± 0.94 h | 0.0666 ± 0.0106 µg·h/mL | 43.7 L/h/kg | 0.0142 ± 0.002 µg/mL | 4.3 ± 0.6 h | 1.75 ± 0.96 h | 164 ± 56 L/kg | 2.90% | N[C@@H](CC(=O)N1CCn2c(C(F)(F)F)nc(C(=O)[O-])c2C1)Cc1cc(F)c(F)cc1F.[Na+] [Example 4, Sodium (R)-7-[3-amino-4-(2,4,5-trifluorophenyl)butanoyl]-3-trifluoromethyl-5,6,7,8-tetrahydro-imidazo[1,5-a]pyrazine-1-carboxylate] | 9.49% | 
4 | 63.6 µM | 87.9 µM |  | 17.2 mg/mL | 31.3 mg/mL | 18.6 mg/mL | 20.9 mg/mL | 1.74 ± 0.16 h | 0.0666 ± 0.0195 µg·h/mL | 45.6 L/h/kg | 0.018 ± 0.0075 µg/mL | 3.17 ± 0.36 h | 2.5 ± 1 h | 114 ± 27 L/kg | 2.90% | Cl.N[C@@H](CC(=O)N1CCn2c(C(F)(F)F)nc(C(=O)O)c2C1)Cc1cc(F)c(F)cc1F [Example 1, (R)-7-[3-Amino-4-(2,4,5-trifluorophenyl)-butanoyl]-3-trifluoromethyl-5,6,7,8-tetrahydro-imidazo[1,5-a]pyrazine-1-carboxylic acid hydrochloride] | 16.06% | inhibition activity against DPP-IV (in words) (DPP-IV [4]): excellent inhibition activity
